Data set [1] in a line: Pyrolysis temperature of the plasticizer. It counts as physicochemical. On the procedure:
According to the plasticizer of the present disclosure, when a pyrolysis temperature of the plasticizer is Pt, the following condition can be satisfied: 100° C.≤Pt. Therefore, it is favorable for stabilizing the structure of the plasticizer at the high temperature by the high pyrolysis temperature of the plasticizer. Furthermore, the following condition can be satisfied: 120° C.≤Pt. Furthermore, the following condition can be satisfied: 150° C.≤Pt. Furthermore, the following condition can be satisfied: 170° C.≤Pt. Furthermore, the following condition can be satisfied: 180° C.≤Pt.

In data set [2] the test system is mouse lung fibroblast (L929 cell line). Description: Cell viability test (ISO10993-5, MTT assay). The conditions noted are these: for cell viability: L929, 24 hours, 37° C. Type of data set: cell-based. From the text:
The 1st example is used as the experimental group to perform the cell viability test. Specifically, according to ISO10993-5 standard method, the mouse lung fibroblast (L929 cell line) is used as the test cell, and the composition of the test culture medium is 90% MEM culture medium, 10% fetal bovine serum (FBS) and additional 1% antibiotic (penicillin-streptomycin). Then, the ethanol with the final concentration of 0.1% is used as the solvent to dissolve the tested plasticizer in the test culture medium. The control group of the cell viability test is the test culture solution only added the ethanol with the final concentration of 0.1%. In the experimental group, the plasticizer of the 1st example with the concentration of 0.1 mM or 0.3 mM is added to the test culture solution, respectively, and the concentration of the ethanol in the test culture solution of the control group and the experimental group are the same, the test condition is the 37° C. environment containing 5% carbon dioxide placed for 24 hours. After the test finished, each group is tested with MTT assay, the detection wavelength is the optical density at 570 nm (OD570) and the optical density at 650 nm (OD650), and the cell viability is calculated accordingly. The formula for calculating the cell viability is: (the average value of OD570 and OD650 in the experimental group)/(the average value of three repetitions of (the average value of OD570 and OD650 in the control group))×100%. The cell viability is used to determine whether the group has the cytotoxicity, and when the cell viability is more than 70%, it is considered that this group is non-cytotoxic.
(In general: Tetrazolium dyes change colour on reduction, which living cells bring about.)

Structures are written as SMILES.

As a reminder, the cell viability is a per cent measure of how many cells are alive, often set against a control. Higher therefore signals better survival.

In the case of `CCC(CC)COC(=O)CC(N)C(=O)OCC(CC)CC` (stereo not shown) [1st example, 1,4-bis(2-ethylbutyl) 2-aminobutanedioate], the “Pt (º C.)” value in data set [1] was 200 º C. Besides, the “toxic to the cells” value in data set [2] (0.3 mM) is given as “will not be toxic to the cells”. Besides, the values for the cell viability in data set [2] (plasticizer 0.1 mM) and in data set [2] (plasticizer 0.3 mM) were 99.10% and 81.90%, respectively.

These data come from patent publication US20240218156A1, “PLASTICIZER, PLASTIC COMPOSITION, AND PLASTIC PRODUCT” (LARGAN MEDICAL CO., LTD., priority 2022, published 2024).
